Results taken from patent US11793880B2, “Conjugates of quaternized tubulysin compounds” (Seagen Inc., priority 2015, dated 2023).

Experiments:
L540cy, HL [1] = assay: In vitro assays - tubulysin free drugs, CellTiter-Glo growth inhibition; format: cell-based; settings: L540cy, 96 h, free drug
HL60/RV, MDR + AML = assay: as above; format: cell-based; settings: Homo sapiens, HL-60, 96 h, free drug
HL60, AML = assay: as above; format: cell-based; settings: Homo sapiens, HL-60, 96 h, free drug
L428, MDR + HL [2] = assay: as above; format: cell-based; settings: Homo sapiens, L-428, 96 h, free drug
Description: (§1) In vitro assays. Cells cultured in log-phase growth were seeded for 24 h in 96-well plates containing 150 μL RPMI 1640 supplemented with 20% FBS. Serial dilutions of antibody-drug conjugates in cell culture media were prepared at 4× working concentrations; 50 μL of each dilution was added to the 96-well plates. Following addition of ADC, cells were incubated with test articles for 4 d at 37° C. After 96 h, growth inhibition was assessed by CellTiter-Glo® (Promega, Madison, WI) and luminescence was measured on a plate reader. The IC50 value, determined in triplicate, is defined here as the concentration that results in a 50% reduction in cell growth relative to untreated controls.
(§2) In vitro assays—tubulysin free drugs. Cells were treated for 96 hours with tubulysin ether analogs (40-42) or tubulysin M (7), then assessed for viability as described in the methods.
(§3) The tubulysin ester analogs (133-137) and unsaturated ether analogs (176-179) were tested in vitro for potency relative to tubulysin M (7), following a 96 hour exposure. As shown by IC50 values (nM) of Table 2, Tubulysin esters 133-136 performed comparably to tubulysin M, with similar potencies across of the cell lines.

Karpas299, ALCL [3] = assay: as above; format: cell-based; settings: Homo sapiens, KARPAS-299, 96 h, free drug
Description: as §1, §2, §3

[4] = test system: Karpas299, L540cy, L428, HL60, HL60/RV cell lines; assay: In vitro assays - tubulysin free drugs, statements across the cell line panel; format: cell-based; settings: for potency relative to tubulysin M (7), in words: Table 2 cell lines, 96 hour exposure
Description: as §1, §2
The ethyl ether and tubulysin M maintained the highest level of potency in the context of MDR+L428 and HL60/RV cell lines.
as §3

Karpas299, ALCL [5] = assay: In vitro assays - tubulysin ADCs (cAC10, anti-CD30); format: cell-based; settings: Table 4; cAC10 ADCs DAR 8, 96 h
L540cy, HL [6] = settings: Table 4; cAC10 ADCs DAR 8, 96 h
Description: (§4) In vitro assays. Cells cultured in log-phase growth were seeded for 24 h in 96-well plates containing 150 μL RPMI 1640 supplemented with 20% FBS. Serial dilutions of antibody-drug conjugates in cell culture media were prepared at 4× working concentrations; 50 μL of each dilution was added to the 96-well plates. […] After 96 h, growth inhibition was assessed by CellTiter-Glo® (Promega, Madison, WI) and luminescence was measured on a plate reader.
(§5) In vitro assays—tubulysin ADCs. ADCs were prepared by t Ell reduction of interchain disulfides to reveal 8-conjugatable cysteines/antibody that were alkylated through Michael addition with the maleimide-containing Drug Linker compounds. […] conjugates hearing quaternized tubulysin ethers with and without a PEG12 side-chain were compared to their tubulysin M analogs.
(§6) Several hydrophilic linker constructs incorporating quaternized tubulysin M were prepared and evaluated in vitro; the results are shown in Table 5. The data (IC50 values in ng/mL) indicate that Conjugates prepared from Drug Linker compounds having quaternized tubulysin M linked via a hydrophilic ValGlu dipeptide with (95) or without (91) a PEG12 side chain, or linked via a hydrophilic glucuronide (82) provide ADCs that are equipotent to the ValAla comparator (15).

L428, MDR + HL [7] = settings: Table 4; cAC10 ADCs DAR 8, 96 h
Description: as §4, §5, §6

DEL/BVR, MDR + ALCL = settings: Table 4; cAC10 ADCs DAR 8, 96 h
Description: as §4, §5, §6

DEL, ALCL = settings: Table 4; cAC10 ADCs DAR 8, 96 h
Description: as §4, §5, §6

Row | SMILES | IC50, Karpas299, ALCL (Karpas299, ALCL [5]) | IC50, L540cy, HL (L540cy, HL [6]) | IC50, L428, MDR + HL (L428, MDR + HL [7]) | IC50, DEL/BVR, MDR + ALCL (DEL/BVR, MDR + ALCL) | IC50 (L540cy, HL [1]; Table 2, 96 hour exposure) | IC50 (HL60/RV, MDR + AML; Table 2, 96 hour exposure) | IC50 (HL60, AML; Table 2, 96 hour exposure) | IC50 (L428, MDR + HL [2]; Table 2, 96 hour exposure) | IC50 (Karpas299, ALCL [3]; Table 2, 96 hour exposure) | potency relative to tubulysin M (7), in words [4] | further results
1 | CCO[C@H](C[C@H](C(C)C)N(C)C(=O)[C@@H](NC(=O)[C@H]1CCCCN1C)[C@@H](C)CC)c1nc(C(=O)N[C@@H](Cc2ccccc2)C[C@H](C)C(=O)O)cs1 [Compound 41, (2S,4R)-4-(2-((1R,3R)-3-((2S,3S)—N,3-dimethyl-2-((R)-1-methylpiperidine-2-carboxamido)pentanamido)-1-ethoxy-4-methylpentyl)thiazole-4-carboxamido)-2-methyl-5-phenylpentanoic acid] |  |  |  |  |  |  |  |  |  |  | IC50 (L540cy, HL [1]; Table 1 (examples)): 0.05 nM; IC50 (HL60/RV, MDR + AML; Table 1 (examples), 96 hours): 5 nM; IC50 (HL60, AML; Table 1 (examples), 96 hours): 0.05 nM; IC50 (L428, MDR + HL [2]; Table 1 (examples), 96 hours): 0.14 nM; IC50 (Karpas299, ALCL [3]; Table 1 (examples), 96 hours): 0.05 nM; potency on each of the cell lines, in words ([4]; Table 1 (examples) cell lines, 96 hours): trended more potent
2 | CC[C@H](C)[C@H](NC(=O)[C@H]1CCCC[N+]1(C)Cc1ccc(O[C@@H]2O[C@H](C(=O)O)[C@@H](O)[C@H](O)[C@H]2O)c(NC(=O)CCNC(=O)[C@H](CN)N2C(=O)C=CC2=O)c1)C(=O)N(C)[C@H](C[C@@H](OC)c1nc(C(=O)N[C@@H](Cc2ccccc2)C[C@H](C)C(=O)O)cs1)C(C)C (stereo partly drawn) [Compound 56, (2R)-1-(3-(3-((S)-3-amino-2-(2,5-dioxo-2,5-dihydro-1H-pyrrol-1-yl)propanamido)propanamido)-4-(((2S,3R,4S,5S,6S)-6-carboxy-3,4,5-trihydroxytetrahydro-2H-pyran-2-yl)oxy)benzyl)-2-(((2S,3S)-1-(((1R,3R)-1-(4-(((2R,4S)-4-carboxy-1-phenylpentan-2-yl)carbamoyl)thiazol-2-yl)-1-methoxy-4-methylpentan-3-yl)(methyl)amino)-3-methyl-1-oxopentan-2-yl)carbamoyl)-1-methylpiperidin-1-ium] | 3 ng/mL | 10 ng/mL | >1000 ng/mL | 20 ng/mL |  |  |  |  |  |  | 
3 | CCO[C@H](C[C@H](C(C)C)N(C)C(=O)[C@@H](NC(=O)[C@H]1CCCC[N+]1(C)Cc1ccc(O[C@@H]2O[C@H](C(=O)O)[C@@H](O)[C@H](O)[C@H]2O)c(NC(=O)CCNC(=O)[C@H](CCCCNC(=O)CCOCCOCCOCCOCCOCCOCCOCCOCCOCCOCCOCCOC)NC(=O)[C@H](CN)N2C(=O)C=CC2=O)c1)[C@@H](C)CC)c1nc(C(=O)N[C@@H](Cc2ccccc2)C[C@H](C)C(=O)O)cs1 (some centres unmarked) [Compound 66] | 1 ng/mL | 5 ng/mL | 6 ng/mL | 6 ng/mL |  |  |  |  |  |  | 
4 | CCCO[C@H](C[C@H](C(C)C)N(C)C(=O)[C@@H](NC(=O)[C@H]1CCCC[N+]1(C)Cc1ccc(O[C@@H]2O[C@H](C(=O)O)[C@@H](O)[C@H](O)[C@H]2O)c(NC(=O)CCNC(=O)[C@H](CCCCNC(=O)CCOCCOCCOCCOCCOCCOCCOCCOCCOCCOCCOCCOC)NC(=O)[C@H](CN)N2C(=O)C=CC2=O)c1)[C@@H](C)CC)c1nc(C(=O)N[C@@H](Cc2ccccc2)C[C@H](C)C(=O)O)cs1 (some centres unmarked) [Compound 67] | 4 ng/mL | 10 ng/mL | >1000 ng/mL | 12 ng/mL |  |  |  |  |  |  | 
5 | CC[C@H](C)[C@H](NC(=O)[C@H]1CCCC[N+]1(C)Cc1ccc(O[C@@H]2O[C@H](C(=O)O)[C@@H](O)[C@H](O)[C@H]2O)c(NC(=O)CCNC(=O)[C@H](CCCCNC(=O)CCOCCOCCOCCOCCOCCOCCOCCOCCOCCOCCOCCOC)NC(=O)[C@H](CN)N2C(=O)C=CC2=O)c1)C(=O)N(C)[C@H](C[C@@H](OC(C)=O)c1nc(C(=O)N[C@@H](Cc2ccccc2)C[C@H](C)C(=O)O)cs1)C(C)C (some centres unmarked) [Compound 99] | 0.3 ng/mL | 2 ng/mL | 0.5 ng/mL | 2 ng/mL |  |  |  |  |  |  | IC50, DEL, ALCL (DEL, ALCL): 1 ng/mL
6 | CC[C@H](C)[C@H](NC(=O)[C@H]1CCCCN1C)C(=O)N(C)[C@H](C[C@@H](OC(=O)CC(C)(C)C)c1nc(C(=O)N[C@@H](Cc2ccccc2)C[C@H](C)C(=O)O)cs1)C(C)C [Compound 137, (2S,4R)-4-(2-((1R,3R)-3-((2S,3S)—N,3-dimethyl-2-((R)-1-methylpiperidine-2-carboxamido)pentanamido)-1-((3,3-dimethylbutanoyl)oxy)-4-methylpentyl)thiazole-4-carboxamido)-2-methyl-5-phenylpentanoic acid] |  |  |  |  | 0.7 nM | 47 nM | 0.7 nM | 0.93 nM | 0.18 nM | reduced potency | 
7 | C=C(C)CO[C@H](C[C@H](C(C)C)N(C)C(=O)[C@@H](NC(=O)[C@H]1CCCCN1C)[C@@H](C)CC)c1nc(C(=O)N[C@@H](Cc2ccccc2)C[C@H](C)C(=O)O)cs1 [Compound 176, (2S,4R)-4-(2-((1R,3R)-3-((2S,3S)—N,3-dimethyl-2-((R)-1-methylpiperidine-2-carboxamido)pentanamido)-4-methyl-1-((2-methylallyl)oxy)pentyl)thiazole-4-carboxamido)-2-methyl-5-phenylpentanoic acid] |  |  |  |  | 0.06 nM | 6 nM | 0.07 nM | 0.12 nM | 0.12 nM | comparable potency | 
8 | C=CCO[C@H](C[C@H](C(C)C)N(C)C(=O)[C@@H](NC(=O)[C@H]1CCCCN1C)[C@@H](C)CC)c1nc(C(=O)N[C@@H](Cc2ccccc2)C[C@H](C)C(=O)O)cs1 [Compound 177, (2S,4R)-4-(2-((1R,3R)-1-(allyloxy)-3-((2S,3S)—N,3-dimethyl-2-((R)-1-methylpiperidine-2-carboxamido)pentanamido)-4-methylpentyl)thiazole-4-carboxamido)-2-methyl-5-phenylpentanoic acid] |  |  |  |  | 0.12 nM | 9 nM | 0.1 nM | 0.15 nM | 0.02 nM | comparable potency | 
9 | C#CCO[C@H](C[C@H](C(C)C)N(C)C(=O)[C@@H](NC(=O)[C@H]1CCCCN1C)[C@@H](C)CC)c1nc(C(=O)N[C@@H](Cc2ccccc2)C[C@H](C)C(=O)O)cs1 [Compound 178, (2S,4R)-4-(2-((1R,3R)-3-((2S,3S)—N,3-dimethyl-2-((R)-1-methylpiperidine-2-carboxamido)pentanamido)-4-methyl-1-(prop-2-yn-1-yloxy)pentyl)thiazole-4-carboxamido)-2-methyl-5-phenylpentanoic acid] |  |  |  |  | 0.17 nM | 27 nM | 0.2 nM | 0.41 nM | 0.05 nM | attenuated in potency | 
10 | CC[C@H](C)[C@H](NC(=O)[C@H]1CCCCN1C)C(=O)N(C)[C@H](C[C@@H](OCc1ccccc1)c1nc(C(=O)N[C@@H](Cc2ccccc2)C[C@H](C)C(=O)O)cs1)C(C)C [Compound 179, (2S,4R)-4-(2-((1R,3R)-1-(benzyloxy)-3-((2S,3S)—N,3-dimethyl-2-((R)-1-methylpiperidine-2-carboxamido)pentanamido)-4-methylpentyl)thiazole-4-carboxamido)-2-methyl-5-phenylpentanoic acid] |  |  |  |  | 0.4 nM | 24 nM | 0.4 nM | 0.57 nM | 0.08 nM | attenuated in potency | 
